Source: patent US20260347353A1, “INDOLIZINE DERIVATIVES FOR TREATING CANCER” (Antares Therapeutics, Inc., priority 2022, published 2026)

What was measured:
[1] = system: NUGC3 cells (p53 Y220C); assay: Cell Proliferation Assay (CellTiter-Glo), NUGC3 p53 Y220C; type: cell-based; settings: Homo sapiens, NUGC-3, 120 h, 5 days, read-out: CTG NUGC3 P53 Y220C IC50
Experimental: Inducible p53 Y220C and R273H constructs (Tet-One inducible expression system; Takara) were stably expressed in NCIH1299 cells by lentiviral transduction. NUGC3, A549, BxPC3, T3M4, HuH7, HCC2935, MFE296, NCIH1299, NCIH1299-inducible p53 Y220C, and NCIH1299-inducible p53 R273H cell lines were used for cell proliferation assay. 250-500 cells were seeded in each well of 384 plate and then compounds were dispensed into each well using Echo or Tecan. After 5 days of incubation, equal volume of CellTiter-Glo reagent (G7570; Promega) was added into each well and the plate was incubated at room temperature for 10 minutes with shaking. The luminescent signal was measured by PheraStar microplate reader and IC50 was calculated.

[2] = biological target: p53 Y220C (Homo sapiens, UniProt P04637, Y220C); assay: Luciferase Reporter Assay, p53 Y220C (NCIH1299 cells with inducible p53 Y220C and p53 response element-luciferase); type: cell-based; settings: 6 hour compound treatment, read-out: Luc P53 Y220C AC50
Experimental: Luciferase reporter (Luc) driven by p53 response element (LTV-p53-Luc (SKU #: LTLR007); G&P Biosciences) and inducible p53 Y220C construct (Tet-One inducible expression system; Takara) were stably expressed in NCIH1299 cells by lentiviral transduction. The cells were then used for p53 reporter assay. 5,000 cells were seeded in each well of 384 plate and cultured in 0.5 ug/mL doxycycline (D3072; Sigma) containing medium for 24 hours before compound treatment. After 6 hour of compound treatment, equal volume of One-Glo reagent (E6110; Promega) was added to each well and the plate was incubated for 5 minutes with shaking at room temperature. The luciferase activity was immediately measured with PheraStar microplate reader. Luciferase activity was stimulated by 10 uM of a tool compound as positive control and AC50 was calculated.

[3] = biological target: T1, p53 Y220C mutant protein (amino acid residues 94-293) (Homo sapiens, UniProt P04637, Y220C); assay: Surface Plasmon Resonance (SPR) assay, p53 Y220C Kd_kinetic; settings: multi-cycle kinetics, 16 or 20 °C, pH 7.5, 1:1 binding model
T1 construct: p53 Y220C mutant protein (amino acid residues 94-293)
Experimental: SPR experiments are performed on a Biacore 8K instrument. […] Compounds are 2-fold, 7-point serial diluted; the top concentration varies depending on the potency. Compound binding affinities are measured in the multi-cycle kinetics mode, at 30 μL/min flow rate with 60 seconds association time and 120 seconds dissociation time. The running buffer contains 50 mM Tris, pH 7.5, 100 mM NaCl, 1 mM DTT, 0.01% Brij35, 0.05% Tween-20 and 1% DMSO. The assay temperature is maintained at 16 or 20 °C and data are fit into the 1:1 binding model using the Biacore Insight Evaluation software.

T1 sequence (P04637 94-293, stated change not applied): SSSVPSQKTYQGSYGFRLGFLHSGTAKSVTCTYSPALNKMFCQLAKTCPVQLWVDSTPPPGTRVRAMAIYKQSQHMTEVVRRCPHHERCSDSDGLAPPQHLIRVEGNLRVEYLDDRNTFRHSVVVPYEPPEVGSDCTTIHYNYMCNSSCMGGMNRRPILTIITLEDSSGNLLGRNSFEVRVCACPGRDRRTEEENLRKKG

| Structure (SMILES) | IC50 [1] [nM] | AC50 [2] [nM] | Kd [3] [nM] |
| --- | --- | --- | --- |
| CNC(=O)c1cnc(NCc2nc(-c3cc4c(N[C@@H]5CCN(C)C[C@@H]5F)cccn4c3SC(F)(F)F)no2)nc1 [Example 50, 2-({[3-(8-{[(3S,4R)-3-fluoro-1-methylpiperidin-4-yl]amino}-3-[(trifluoromethyl)sulfanyl]indolizin-2-yl)-1,2,4-oxadiazol-5-yl]methyl}amino)-N-methylpyrimidine-5-carboxamide] | 750 to 1500 | < 750 | < 10 |
| CN1CC[C@@H](Nc2cccn3c(SC(F)(F)F)c(-c4noc([C@@H](CO)NC(=O)C5CC5)n4)cc23)[C@@H](F)C1 [Example 53, N-[(1R)-1-[3-(8-{[(3S,4R)-3-fluoro-1-methylpiperidin-4-yl]amino}-3-[(trifluoromethyl)sulfanyl]indolizin-2-yl)-1,2,4-oxadiazol-5-yl]-2-hydroxyethyl]cyclopropanecarboxamide] | ≥ 3000 | ≥ 3000 | 10 to 100 |
| CN1CC[C@@H](Nc2cccn3c(SC(F)(F)F)c(-c4noc([C@H](CO)NC(=O)C5CC5)n4)cc23)[C@@H](F)C1 [Example 55, N-[(1S)-1-[3-(8-{[(3S,4R)-3-fluoro-1-methylpiperidin-4-yl]amino}-3-[(trifluoromethyl)sulfanyl]indolizin-2-yl)-1,2,4-oxadiazol-5-yl]-2-hydroxyethyl]cyclopropanecarboxamide] | ≥ 3000 | ≥ 3000 | 10 to 100 |
| CN1CC[C@@H](Nc2cccn3c(SC(F)(F)F)c(-c4noc(CNC(=O)[C@H]5COCCN5C)n4)cc23)[C@@H](F)C1 [Example 68, (3R)-N-{[3-(8-{[(3S,4R)-3-fluoro-1-methylpiperidin-4-yl]amino}-3-[(trifluoromethyl)sulfanyl]indolizin-2-yl)-1,2,4-oxadiazol-5-yl]methyl}-4-methylmorpholine-3-carboxamide] | ≥ 3000 | ≥ 3000 | 10 to 100 |
| CN1CC[C@@H](Nc2cccn3c(SC(F)(F)F)c(-c4noc(CNC(=O)[C@@H]5COCCN5C)n4)cc23)[C@@H](F)C1 [Example 69, (3S)—N-{[3-(8-{[(3S,4R)-3-fluoro-1-methylpiperidin-4-yl]amino}-3-[(trifluoromethyl)sulfanyl]indolizin-2-yl)-1,2,4-oxadiazol-5-yl]methyl}-4-methylmorpholine-3-carboxamide] | ≥ 3000 | ≥ 3000 | 10 to 100 |
| CN1CC[C@@H](Nc2cccn3c(SC(F)(F)F)c(-c4noc(CNC(=O)c5cncs5)n4)cc23)[C@@H](F)C1 [Example 70] | < 750 | < 750 | < 10 |
| Cc1ncc(C(=O)NCc2nc(-c3cc4c(N[C@@H]5CCN(C)C[C@@H]5F)cccn4c3SC(F)(F)F)no2)o1 [Example 71] | < 750 | < 750 | < 10 |
| CN1CC[C@@H](Nc2cccn3c(SC(F)(F)F)c(-c4noc(CNC(=O)c5cnco5)n4)cc23)[C@@H](F)C1 [Example 72] | < 750 | < 750 | < 10 |
| CN1CC[C@@H](Nc2cccn3c(SC(F)(F)F)c(-c4noc(CNC(=O)c5cnc[nH]5)n4)cc23)[C@@H](F)C1 [Example 73] | 750 to 1500 | < 750 | < 10 |
| CN1CC[C@@H](Nc2cccn3c(SC(F)(F)F)c(-c4noc(CNC(=O)c5ncon5)n4)cc23)[C@@H](F)C1 [Example 74] | 1500 to 3000 | 750 to 1500 | < 10 |
| CN1CC[C@@H](Nc2cccn3c(SC(F)(F)F)c(-c4noc(CNC(=O)c5ncn[nH]5)n4)cc23)[C@@H](F)C1 [Example 75] | 750 to 1500 | 750 to 1500 | < 10 |
| CN1CC[C@@H](Nc2cccn3c(SC(F)(F)F)c(-c4noc(CNC(=O)c5ccno5)n4)cc23)[C@@H](F)C1 [Example 76] | 750 to 1500 | < 750 | < 10 |
| CN1CC[C@@H](Nc2cccn3c(SC(F)(F)F)c(-c4noc(CNC(=O)c5cnc(N)o5)n4)cc23)[C@@H](F)C1 [Example 77] | < 750 | < 750 | < 10 |
| CN1CC[C@@H](Nc2cccn3c(SC(F)(F)F)c(-c4noc(CNC(=O)c5ncn(C)n5)n4)cc23)[C@@H](F)C1 [Example 78] | < 750 | < 750 | < 10 |
| CN1CC[C@@H](Nc2cccn3c(SC(F)(F)F)c(-c4noc(CNC(=O)c5cnn(C)n5)n4)cc23)[C@@H](F)C1 [Example 79] | < 750 | < 750 | < 10 |
